In the CheMixHub ionic liquid set:

Experiment: xn = mol fraction of the nth substance listed

CCC(=O)[O-].OCC[NH2+]c1ccccc1 + O
303.15 K, 100 kPa
Conditions | electrical conductivity [S/m]
x2 = 0.01476 | 0.000353
x2 = 0.03394 | 0.000354
x2 = 0.0417 | 0.000355
x2 = 0.05414 | 0.000356

CCCC(=O)[O-].OCC[NH2+]c1ccccc1 + O
303.15 K, 100 kPa
Conditions | electrical conductivity [S/m]
x2 = 0.0163 | 0.000469
x2 = 0.03811 | 0.00047
x2 = 0.05476 | 0.000471
x2 = 0.07271 | 0.000472

CCCCCCCCCCCCCCCC[N+](C)(C)C.[Br-] + O
Conditions | viscosity [mPa·s]
298.15 K, 100 kPa, x1 = 7.21e-06 | 0.896
298.15 K, 100 kPa, x1 = 2.162e-05 | 0.9
298.15 K, 100 kPa, x1 = 7.207e-05 | 0.8804
298.15 K, 101 kPa, x1 = 1.46e-05 | 0.905
298.15 K, 101 kPa, x1 = 1.64e-05 | 0.9071
298.15 K, 101 kPa, x1 = 1.802e-05 | 0.9069
298.15 K, 101 kPa, x1 = 3.622e-05 | 0.9141
298.15 K, 101 kPa, x1 = 5.496e-05 | 0.9181
298.15 K, 101 kPa, x1 = 6.937e-05 | 0.9203
298.15 K, 101 kPa, x1 = 9.225e-05 | 0.9267
298.15 K, 101 kPa, x1 = 0.0001067 | 0.933
298.15 K, 101 kPa, x1 = 0.0001193 | 0.9362
298.15 K, 101 kPa, x1 = 0.0001429 | 0.9436
298.15 K, 101 kPa, x1 = 0.0001602 | 0.9481
298.15 K, 101 kPa, x1 = 0.0001802 | 0.9511
298.15 K, 101 kPa, x1 = 0.0002057 | 0.9556
298.15 K, 101 kPa, x1 = 0.000211 | 0.9553
298.15 K, 101 kPa, x1 = 0.000245 | 0.9662
298.15 K, 101 kPa, x1 = 0.0002573 | 0.9651
298.15 K, 101 kPa, x1 = 0.0002724 | 0.9675
303.15 K, 100 kPa, x1 = 7.207e-05 | 0.7984
308.15 K, 100 kPa, x1 = 7.21e-06 | 0.742
308.15 K, 100 kPa, x1 = 2.162e-05 | 0.745
308.15 K, 100 kPa, x1 = 7.207e-05 | 0.7583

298.15 K, 101 kPa, frequency 0.001 MHz
Conditions | electrical conductivity [S/m]
x1 = 1.09e-06 | 0.001
x1 = 2.34e-06 | 0.00165
x1 = 3.39e-06 | 0.00255
x1 = 4.43e-06 | 0.00305
x1 = 5.57e-06 | 0.00366
x1 = 6.72e-06 | 0.00441
x1 = 7.97e-06 | 0.00511
x1 = 8.91e-06 | 0.00577
x1 = 1.12e-05 | 0.00697
x1 = 1.213e-05 | 0.00757
x1 = 1.307e-05 | 0.00823
x1 = 1.411e-05 | 0.00873
x1 = 1.526e-05 | 0.00943
x1 = 1.63e-05 | 0.00978
x1 = 1.734e-05 | 0.0102
x1 = 1.922e-05 | 0.0105
x1 = 1.995e-05 | 0.0108
x1 = 2.172e-05 | 0.0111
x1 = 2.276e-05 | 0.0113
x1 = 2.443e-05 | 0.0115
x1 = 2.599e-05 | 0.0117
x1 = 2.734e-05 | 0.012
x1 = 2.859e-05 | 0.0122

CCCCCCCCCCCCCCCC[n+]1ccccc1.[Br-] + O
100 kPa, x1 = 9.009e-05
Conditions | electrical conductivity [S/m]
298.15 K | 0.021
303.15 K | 0.021
308.15 K | 0.022
313.15 K | 0.024

CCCCCCCCCCCCCC[P+](CCCCCC)(CCCCCC)CCCCCC.[Br-] + O
100 kPa, x2 = 0.68
Conditions | viscosity [mPa·s]
303.15 K | 180.5
353.15 K | 22.85

CCCCCC[n+]1ccccc1.O=[N+]([O-])[O-] + O
298.15 K, 101 kPa
Conditions | viscosity [mPa·s]
x1 = 0.0002072 | 0.9698
x1 = 0.0003855 | 1.002
x1 = 0.0005691 | 1.012
x1 = 0.0007311 | 1.033
x1 = 0.0009416 | 1.045
x1 = 0.001112 | 1.058
x1 = 0.001262 | 1.069
x1 = 0.00145 | 1.101
x1 = 0.001634 | 1.107
x1 = 0.001826 | 1.122
x1 = 0.003609 | 1.219
x1 = 0.005402 | 1.312
x1 = 0.007153 | 1.39
x1 = 0.008806 | 1.453
x1 = 0.01076 | 1.515
x1 = 0.01248 | 1.581
x1 = 0.01427 | 1.646
x1 = 0.01599 | 1.702
x1 = 0.01772 | 1.758

CCCCCn1cc[n+](CCCCC)c1.O=S(=O)([N-]S(=O)(=O)C(F)(F)F)C(F)(F)F + O
100 kPa, x2 = 0.1575
Conditions | viscosity [mPa·s]
313.15 K | 35.17
338.15 K | 15.44
358.15 K | 9.31

CCCC[N+]1(C)CCCCC1.N#C[N-]C#N + O
100 kPa
Conditions | viscosity [mPa·s]
298.15 K, x2 = 0.2122 | 73
328.15 K, x2 = 0.7349 | 6.6
333.15 K, x2 = 0.6419 | 8

CCCC[N+]1(C)CCCCC1.N#C[S-] + O
101 kPa
Conditions | viscosity [mPa·s]
318.15 K, x2 = 0.3741 | 57.3
328.15 K, x2 = 0.2774 | 59.4
328.15 K, x2 = 0.3741 | 37.2
328.15 K, x2 = 0.6302 | 13.48
338.15 K, x2 = 0.2774 | 39.6
348.15 K, x2 = 0.5111 | 11.92

CCCC[n+]1ccc(C)cc1.F[B-](F)(F)F + O
298.15 K, 101 kPa
Conditions | electrical conductivity [S/m]
x1 = 0.0002198 | 0.131
x1 = 0.0004197 | 0.206
x1 = 0.0007725 | 0.357
x1 = 0.001123 | 0.486
x1 = 0.001267 | 0.554
x1 = 0.001481 | 0.638
x1 = 0.00182 | 0.757
x1 = 0.00217 | 0.871
x1 = 0.002506 | 0.979
x1 = 0.002721 | 1.01
x1 = 0.002887 | 1.07
x1 = 0.003188 | 1.19
x1 = 0.003487 | 1.27
x1 = 0.003843 | 1.36
x1 = 0.004144 | 1.44
x1 = 0.004481 | 1.52

CCCC[n+]1ccccc1.N#C[N-]C#N + O
100 kPa
Conditions | electrical conductivity [S/m] | viscosity [mPa·s]
298.15 K, x1 = 0.9563 | – | 30.06
298.15 K, x1 = 0.9642 | 0.931 | –
303.15 K, x1 = 0.9189 | 1.17 | –
303.15 K, x1 = 0.9338 | 1.14 | –
303.15 K, x1 = 0.9488 | 1.12 | –
303.15 K, x1 = 0.9563 | – | 24.67
313.15 K, x1 = 0.926 | – | 16.69
313.15 K, x1 = 0.9563 | – | 17.57
313.15 K, x1 = 0.9642 | 1.54 | –
318.15 K, x1 = 0.926 | – | 14.38
318.15 K, x1 = 0.9338 | 1.89 | –
318.15 K, x1 = 0.9722 | – | 15.54
323.15 K, x1 = 0.9563 | – | 12.69
323.15 K, x2 = 0.01155 | – | 13.56
328.15 K, x1 = 0.926 | – | 10.62
328.15 K, x1 = 0.9412 | – | 10.83
333.15 K, x1 = 0.9488 | 2.75 | –
333.15 K, x1 = 0.9563 | – | 9.77
333.15 K, x1 = 0.9642 | 2.7 | –
338.15 K, x1 = 0.9412 | – | 8.47

CCOCn1cc[n+](C)c1.O=S(=O)([N-]S(=O)(=O)C(F)(F)F)C(F)(F)F + O
Conditions | viscosity [mPa·s]
333 K, 101 kPa, x1 = 0.8415 | 11.7

CCn1cc[n+](C)c1.N[C@@H](CO)C(=O)[O-] + O
100 kPa
Conditions | electrical conductivity [S/m]
303.15 K, x1 = 0.9276 | 0.0944
308.15 K, x1 = 0.9133 | 0.132
313.15 K, x1 = 0.9133 | 0.169
313.15 K, x1 = 0.9276 | 0.166
318.15 K, x1 = 0.8699 | 0.223
318.15 K, x1 = 0.884 | 0.221
323.15 K, x1 = 0.9133 | 0.269
328.15 K, x1 = 0.884 | 0.346
333.15 K, x1 = 0.8699 | 0.436
333.15 K, x1 = 0.884 | 0.432
338.15 K, x1 = 0.9276 | 0.511

OC[C@H]1O[C@@](CO)(O[C@H]2O[C@H](CO)[C@@H](O)[C@H](O)[C@H]2O)[C@@H](O)[C@@H]1O + O + CCCCCC[n+]1ccn(C)c1.[Br-]
viscosity [mPa·s], 100 kPa
Conditions | x1 = 0.001819, x3 = 0 | x1 = 0.002681, x3 = 0 | x1 = 0.003595, x3 = 0 | x1 = 0.004483, x3 = 0 | x1 = 0.006262, x3 = 0 | x1 = 0.007151, x3 = 0 | x1 = 0.008891, x3 = 0
288.15 K | 1.252 | 1.306 | 1.362 | 1.414 | 1.517 | 1.571 | 1.678
298.15 K | 0.98 | 1.021 | 1.065 | 1.104 | 1.182 | 1.222 | 1.295
308.15 K | 0.789 | 0.822 | 0.855 | 0.886 | 0.949 | 0.978 | 1.035
318.15 K | 0.657 | 0.683 | 0.709 | 0.733 | 0.783 | 0.805 | 0.86
